The values that follow come from patent US12661410B2, “Compounds for targeted degradation of RET” (C4 Therapeutics, Inc., priority 2020, dated 2026).

One test deals with T1, RET(KD: 658-1114 G810R) (Homo sapiens, UniProt P07949, G810R).
T1 construct: 658-1114; expressed in transfected cells; host or cells: 293T.165 (293T cells, generated in-house)
T1 sequence (P07949 658-1114 G810R): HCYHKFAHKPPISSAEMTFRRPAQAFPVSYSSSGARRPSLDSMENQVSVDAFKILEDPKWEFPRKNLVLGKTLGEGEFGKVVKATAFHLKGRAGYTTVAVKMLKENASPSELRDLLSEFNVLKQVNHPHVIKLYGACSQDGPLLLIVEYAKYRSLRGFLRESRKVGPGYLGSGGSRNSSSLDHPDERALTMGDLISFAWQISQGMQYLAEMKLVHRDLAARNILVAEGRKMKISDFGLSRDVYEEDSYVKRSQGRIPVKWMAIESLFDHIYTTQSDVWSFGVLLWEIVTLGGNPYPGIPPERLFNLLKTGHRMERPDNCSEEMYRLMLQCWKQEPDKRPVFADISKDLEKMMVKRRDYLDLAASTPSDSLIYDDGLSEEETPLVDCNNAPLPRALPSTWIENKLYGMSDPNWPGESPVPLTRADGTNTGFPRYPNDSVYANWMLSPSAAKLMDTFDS
In words: HiBiT-Degradation, RET G810R degradation assay (Nano-Glo HiBiT Lytic), 293T.165 cells. The class given is cell-based. Particulars: for Emax / DC50: 6.0 hours. An excerpt:
(§1) Dulbecco's modified Eagle medium (DMEM) no-phenol red media and fetal bovine serum (FBS) were purchased from Gibco (Grand Island, NY, USA). Cell lines ectopically expressing wild-type or G810R RET kinase domain fused with a HiBiT tag were generated in-house (293T. 144 and 293T. 165, respectively). Cell culture flasks and 384-well microplates were acquired from VWR (Radnor, PA, USA). The Nano-Glo® HiBiT Lytic Assay System was purchased from Promega (Madison, WI, USA).
(§2) RET wild-type (WT) and G810R degradation were assessed using the Nano-Glo® HiBiT Lytic assay (Promega, Medison, WI, USA). To determine the effect of degraders on protein levels, cells were plated in 384-well plates and treated with compounds of interest in duplicates for 6 hours using an 11-point half-log dilution series, with the highest dose set at 10 μM. Cell lysis and addition of the Nano-Glo® HiBiT Lytic Assay reagents was then performed. Luminescence signal was measured using an EnVision™ Multimode plate reader (Perkin Elmer, Santa Clara, CA, USA). The half-maximal degradation concentration (DC50) and % remaining protein (Emax) was then derived from the dose-response curves.
(In general: HiBiT is a short tag that completes a luciferase, so light tracks the accessible tagged protein.)

The target in a further test is T2, RET (658-1114) (Homo sapiens, UniProt P07949).
T2 construct: 658-1114; expressed in transfected cells; host or cells: 293T.144 (293T cells, generated in-house)
T2 sequence (P07949 658-1114): T1 sequence (P07949 658-1114 G810R) with R153G
Put plainly: HiBiT-Degradation, RET wild-type degradation assay (Nano-Glo HiBiT Lytic), 293T.144 cells. The class given is cell-based. The following applies: for Emax / DC50: 6.0 hours.
Source text: as §1, §2

The mark [1] stands for this setting: % remaining protein, read-out: 293T.165 RET(KD: 658-1114 G810R) 6.0 hours (Emax).
The mark [2] stands for this setting: half-maximal degradation concentration, read-out: 293T.165 RET(KD: 658-1114 G810R) 6.0 hours (DC50).
[3] abbreviates: % remaining protein, read-out: 293T.144 RET (658-1114) 6.0 hours (Emax).
The mark [4] stands for this setting: half-maximal degradation concentration, read-out: 293T.144 RET (658-1114) 6.0 hours (DC50).

For orientation: Emax means the greatest response seen or fitted, relative to the assay's reference. One may read the DC50 as the concentration giving 50% degradation.

Where a chain is given by its changes, count along the chain named. Read-outs that look alike come from different tables or passages of the source. Bounds are passed on as bounds.

Consider `CCC1(C(=O)NC2CCC2)CCN(c2ccc(-c3nc(-c4cnn(C5CCN([C@H]6CCN(c7ccc(N[C@H]8CCC(=O)NC8=O)cc7F)CC6(F)F)CC5)c4)cn4ncc(C#N)c34)cn2)CC1` (single isomer, unassigned) [Compound 191], for which the “293T.165 RET(KD: 658-1114 G810R) 6.0 hours (IP) [nM]” value on RET(KD: 658-1114 G810R) is “+++ (<100 nM = +++)”. Further, the Emax on RET(KD: 658-1114 G810R) (setting [1]) and at RET (658-1114) (setting [3]) was less than 30% in each case. The DC50 is less than 100 nM on RET(KD: 658-1114 G810R) (setting [2]) and less than 50 nM on RET (658-1114) (setting [4]). Besides, the “293T.144 RET (658-1114) 6.0 hours (IP) [nM]” value at RET (658-1114) is recorded as “++++ (<50 nM = ++++)”.
Take `N#Cc1cnn2cc(-c3cnn(C4CCN(C(=O)CC5(O)CCN(c6ccc(NC7CCC(=O)NC7=O)cc6F)CC5)CC4)c3)nc(-c3ccc(N4CCCN(Cc5ccccc5)CC4)nc3)c12` (stereo not shown) [Compound 108, 4-[6-(4-benzyl-1,4-diazepan-1-yl)-3-pyridyl]-6-[1-[1-[2-[1-[4-[(2,6-dioxo-3-piperidyl)amino]-2-fluoro-phenyl]-4-hydroxy-4-piperidyl]acetyl]-4-piperidyl]pyrazol-4-yl]pyrazolo[1,5-a]pyrazine-3-carbonitrile]: the “293T.165 RET(KD: 658-1114 G810R) 6.0 hours (IP) [nM]” value on RET(KD: 658-1114 G810R) is recorded as “++++ (<50 nM = ++++)”. For the same compound, the Emax on RET(KD: 658-1114 G810R) (setting [1]) and on RET (658-1114) (setting [3]) was less than 30% in each case. Moreover, the DC50 at RET(KD: 658-1114 G810R) (setting [2]) and on RET (658-1114) (setting [4]) was less than 50 nM in each case. The “293T.144 RET (658-1114) 6.0 hours (IP) [nM]” value on RET (658-1114) is “++++ (<50 nM = ++++)”.
On to `CCC1(C(=O)NC2CCC2)CCN(c2ccc(-c3nc(-c4cnn([C@H]5CC[C@H](N6CCN(c7cc(OC)c(N[C@H]8CCC(=O)NC8=O)cc7F)CC6)CC5)c4)cn4ncc(C#N)c34)cn2)CC1` (single isomer, unassigned) [Compound 134], for which, at RET(KD: 658-1114 G810R), the “293T.165 RET(KD: 658-1114 G810R) 6.0 hours (IP) [nM]” value is recorded as “++++ (<50 nM = ++++)”. The Emax on RET(KD: 658-1114 G810R) (setting [1]) and on RET (658-1114) (setting [3]) was less than 30% each time. Besides, the DC50 at RET(KD: 658-1114 G810R) (setting [2]) and at RET (658-1114) (setting [4]) was less than 50 nM each time. For the same compound, at RET (658-1114), the “293T.144 RET (658-1114) 6.0 hours (IP) [nM]” value is “++++ (<50 nM = ++++)”.
`COc1cc(N2CCN([C@H]3CC[C@H](n4cc(-c5cn6ncc(C#N)c6c(-c6ccc(N7CC8CC(C7)N8Cc7ccccc7S(C)(=O)=O)nc6)n5)cn4)CC3)CC2)c(F)cc1NC1CCC(=O)NC1=O` (stereo partly shown) [Compound 217, 6-[1-[4-[4-[4-[(2,6-dioxo-3-piperidyl)amino]-2-fluoro-5-methoxy-phenyl]piperazin-1-yl]cyclohexyl]pyrazol-4-yl]-4-[6-[6-[(2-methylsulfonylphenyl)methyl]-3,6-diazabicyclo[3.1.1]heptan-3-yl]-3-pyridyl]pyrazolo[1,5-a]pyrazine-3-carbonitrile]: the “293T.165 RET(KD: 658-1114 G810R) 6.0 hours (IP) [nM]” value at RET(KD: 658-1114 G810R) is listed as “++++ (<50 nM = ++++)”. Moreover, the Emax on RET(KD: 658-1114 G810R) (setting [1]) and on RET (658-1114) (setting [3]) was less than 30% throughout. The DC50 is less than 100 nM on RET(KD: 658-1114 G810R) (setting [2]) and less than 50 nM on RET (658-1114) (setting [4]). Besides, on RET (658-1114), the “293T.144 RET (658-1114) 6.0 hours (IP) [nM]” value is given as “++++ (<50 nM = ++++)”.
On to `N#Cc1cnn2cc(-c3cnn(C4CCN(C(=O)CN5CCC(c6ccc(NC7CCC(=O)NC7=O)cc6F)CC5)CC4)c3)cc(-c3ccc(N4CC5CC(C4)N5Cc4ccccn4)nc3)c12` (stereo not shown) [Compound 73, 6-[1-[1-[2-[4-[4-[(2,6-dioxo-3-piperidyl)amino]-2-fluoro-phenyl]-1-piperidyl]acetyl]-4-piperidyl]pyrazol-4-yl]-4-[6-[6-(2-pyridylmethyl)-3,6-diazabicyclo[3.1.1]heptan-3-yl]-3-pyridyl]pyrazolo[1,5-a]pyridine-3-carbonitrile], for which the Emax on RET(KD: 658-1114 G810R) (setting [1]) was less than 30%; on RET(KD: 658-1114 G810R) (RET G810R, read-out: HiBiT-Degradation 293T.165 RET(KD: 658-1114 G810R) 6.0 hours (Emax)), less than 30%; at RET (658-1114) (RET wild-type, read-out: HiBiT-Degradation 293T.144 RET (658-1114) 6.0 hours (Emax)) it was less than 30%. Also, the DC50 on RET(KD: 658-1114 G810R) (setting [2]) is less than 50 nM; at RET(KD: 658-1114 G810R) (RET G810R, read-out: HiBiT-Degradation 293T.165 RET(KD: 658-1114 G810R) 6.0 hours (DC50)) it was less than 50 nM; on RET (658-1114) (RET wild-type, read-out: HiBiT-Degradation 293T.144 RET (658-1114) 6.0 hours (DC50)), less than 50 nM. In addition, on RET(KD: 658-1114 G810R) (RET G810R), the “HiBiT-Degradation 293T.165 RET(KD: 658-1114 G810R) 6.0 hours (IP) [nM]” value is “++++ (< 50 nM = ++++)”. The “HiBiT-Degradation 293T.144 RET (658-1114) 6.0 hours (IP) [nM]” value on RET (658-1114) (RET wild-type) is recorded as “++++ (< 50 nM = ++++)”.
Regarding `CCC1(C(=O)NC2CCC2)CCN(c2ccc(-c3nc(-c4cnn([C@H]5CC[C@H](N6CCC(c7ccc(N[C@@H]8CCC(=O)NC8=O)cc7Cl)CC6)CC5)c4)cn4ncc(C#N)c34)cn2)CC1` (single isomer, unassigned) [Compound 131], on RET(KD: 658-1114 G810R), the “293T.165 RET(KD: 658-1114 G810R) 6.0 hours (IP) [nM]” value is reported as “++++ (<50 nM = ++++)”. For the same compound, the Emax on RET(KD: 658-1114 G810R) (setting [1]) and at RET (658-1114) (setting [3]) was less than 30% in each case. Also, the DC50 at RET(KD: 658-1114 G810R) (setting [2]) and at RET (658-1114) (setting [4]) was less than 50 nM each time. Moreover, the “293T.144 RET (658-1114) 6.0 hours (IP) [nM]” value on RET (658-1114) is on record as “++++ (<50 nM = ++++)”.
Turning to `N#Cc1cnn2cc(-c3cnn([C@H]4CC[C@H](N5CCN(c6c(F)cc(NC7CCC(=O)NC7=O)cc6F)CC5)CC4)c3)nc(-c3ccc(N4CC[C@H](OCc5ccccn5)C4)nc3)c12` (mixture of isomers) [Compound 211, 6-[1-[4-[4-[4-[(2,6-dioxo-3-piperidyl)amino]-2,6-difluoro-phenyl]piperazin-1-yl]cyclohexyl]pyrazol-4-yl]-4-[6-[rac-(3S)-3-(2-pyridylmethoxy)pyrrolidin-1-yl]-3-pyridyl]pyrazolo[1,5-a]pyrazine-3-carbonitrile], the “293T.165 RET(KD: 658-1114 G810R) 6.0 hours (IP) [nM]” value on RET(KD: 658-1114 G810R) is reported as “++++ (<50 nM = ++++)”. In addition, the Emax at RET(KD: 658-1114 G810R) (setting [1]) and on RET (658-1114) (setting [3]) was less than 30% each time. Further, the DC50 on RET(KD: 658-1114 G810R) (setting [2]) and on RET (658-1114) (setting [4]) was less than 50 nM in each case. Besides, the “293T.144 RET (658-1114) 6.0 hours (IP) [nM]” value at RET (658-1114) was “++++ (<50 nM = ++++)”.
With `CCC1(C(=O)NC(C)C)CCN(c2ccc(-c3cc(-c4cnn(C5CCN(C(=O)CN6CCC(c7ccc8c(N9CCC(=O)NC9=O)nn(C)c8c7)CC6)CC5)c4)cn4ncc(C#N)c34)cn2)CC1` [Compound 63, 1-[5-[3-cyano-6-[1-[1-[2-[4-[3-(2,4-dioxohexahydropyrimidin-1-yl)-1-methyl-indazol-6-yl]-1-piperidyl]acetyl]-4-piperidyl]pyrazol-4-yl]pyrazolo[1,5-a]pyridin-4-yl]-2-pyridyl]-4-ethyl-N-isopropyl-piperidine-4-carboxamide], the Emax was less than 30% on RET(KD: 658-1114 G810R) (setting [1]) and less than 30% on RET (658-1114) (HiBiT-Degradation, read-out: 293T.144 RET (658-1114) 6.0 hours (Emax)). In addition, the DC50 at RET(KD: 658-1114 G810R) (setting [2]) was less than 100 nM; on RET(KD: 658-1114 G810R) (HiBiT-Degradation, read-out: 293T.165 RET(KD: 658-1114 G810R) 6.0 hours (DC50)), less than 100 nM; at RET (658-1114) (HiBiT-Degradation, read-out: 293T.144 RET (658-1114) 6.0 hours (DC50)), less than 50 nM. Also, the “293T.165 RET(KD: 658-1114 G810R) 6.0 hours (Emax)” value on RET(KD: 658-1114 G810R) (HiBiT-Degradation) is given as “++++ (< 30% = ++++)”. Besides, the “293T.165 RET(KD: 658-1114 G810R) 6.0 hours (IP) [nM]” value on RET(KD: 658-1114 G810R) (HiBiT-Degradation) was “++++ (< 50 nM = ++++)”. At RET (658-1114) (HiBiT-Degradation), the “293T.144 RET (658-1114) 6.0 hours (IP) [nM]” value is “++++ (< 50 nM = ++++)”.
